In article PMC4520234 (Journal of medicinal chemistry, 2015):

Legend:
mice [1] = assay: In vivo tolerability in mice, intraperitoneal injection
[2] = dogs, cited from earlier work
mice [3] = conditions: cited from earlier work
[4] = Zinc binding by EGTA titration; conditions: EGTA 7.3 mM, PAC-1 derivative 100 μM, Zn(OTf)2 titration, ex. 410 nm, em. 475 nm
[5] = Pharmacokinetics in mice, 25 mg/kg IV injection or oral gavage; type: in vivo, mouse; conditions: 25 mg/kg IV (n = 2)
[6] = i.p. injection 200 mg/kg, graded mild, moderate, severe, or lethal

C=CCc1cccc(/C=N/NC(=O)CN2CCN(C(=O)c3ccc(F)cc3)CC2)c1O [Compound 7, N′-[2-Hydroxy-3-(2-propenyl)phenylmethylene]-4-(4-fluorobenzoyl)-1-piperazineacetohydrazide]
mouse toxicity IP 200 mg/kg (mice [1]; [6]): moderate

O=C(CN1CCN(C(=O)c2ccc(C(F)(F)F)cc2)CC1)N/N=C/c1cc(F)ccc1O [Compound 27, N′-(5-Fluoro-2-hydroxyphenylmethylene)-4-[4-(trifluoromethyl)benzoyl]-1-piperazineacetohydrazide]
mouse toxicity IP 200 mg/kg (mice [1]; [6]): moderate

C=CCc1cc(F)cc(/C=N/NC(=O)CN2CCN(C(=O)c3ccccc3)CC2)c1O [Compound 30, N′-[5-Fluoro-2-hydroxy-3-(2-propenyl)phenylmethylene]-4-benzoyl-1-piperazineacetohydrazide]
mouse toxicity IP 200 mg/kg (mice [1]; [6]): moderate

C=CCc1cc(F)cc(/C=N/NC(=O)CN2CCN(C(=O)c3ccc(F)cc3)CC2)c1O [Compound 34, N′-[5-Fluoro-2-hydroxy-3-(2-propenyl)phenylmethylene]-4-(4-fluorobenzoyl)-1-piperazineacetohydrazide]
mouse toxicity IP 200 mg/kg (mice [1]; [6]): severe

CCCc1cc(F)cc(/C=N/NC(=O)CN2CCN(C(=O)c3ccc(F)cc3)CC2)c1O [Compound 43, N′-(5-Fluoro-2-hydroxy-3-propylphenylmethylene)-4-(4-fluorobenzoyl)-1-piperazineacetohydrazide]
mouse toxicity IP 200 mg/kg (mice [1]; [6]): severe

C=CCc1cccc(/C=N/NC(=O)CN2CCN(Cc3ccccc3)CC2)c1O [PAC-1, Procaspase-Activating Compound 1]
mouse toxicity IP 200 mg/kg (mice [1]; mouse, in vivo, ip, 200 mg/kg): severe | in vivo half-life ([2]; IV administration): 2.1 ± 0.3 h | serum concentration achieved with few adverse events [2]: approximately 10 μM | serum concentration achieved with few adverse events (mice [3]): approximately 10 μM | maximum tolerated dose (mice [3]; intraperitoneal injection): 200 mg/kg

O=C(CN1CCN(Cc2ccccc2)CC1)N/N=C/c1ccccc1 [PAC-1a]
Zn^2+ Kd [4]: does not bind zinc

C=CCc1cccc(/C=N/NC(=O)CN2CCN(Cc3ccc(S(N)(=O)=O)cc3)CC2)c1O [S-PAC-1]
time post-treatment up to which compound is detectable in serum [5]: 6 h
